Test results reported in patent US20100167275A1, “Potassium channel mutants of the yeast Saccharomyces cerevisiae and their use for screening eukaryotic potassium channels” (sanofi-aventis Deutschland GmbH, priority 2000, published 2010).
Read-outs that look alike come from different tables or passages of the source.

Tested on: Saccharomyces cerevisiae wild-type strain
Format: cell-based
Procedure: FIG. 9: Growth of the Saccharomyces cerevisiae wild-type strain in DPM-HIS/-TRP 5 mM KCl medium in 96-well ELISA plates in the presence of 0.5 mM CsCl. The various inhibitors were employed at a final concentration of in each case 30 μM. To measure the cell density, a commercially available LacZ reporter system pYX232 by Ingenius (cat. No. MBV-032-10) was transformed into the yeast strains to be studied. Expression of the LacZ reporter gene was under the control of the constitutive Saccharomyces cerevisiae promotor TPI for the triose phosphate isomerase gene. The LacZ enzyme activity was measured via detecting the luminescence after 24 hours' growth (density of the starter culture: 0.01 OD620) using a commercially available assay system by TROPIX.
The values correspond to the average of in each case 4 measurements±SD. The two different assays were carried out independently of each other on two different days.
All substances, dissolved in DMSO, were employed in a final concentration of 30 μM. As a control, cells were measured with the same final concentration of 0.5% DMSO without substance, without DMSO addition or without substance.

[1] = 30 μM, wild-type cells, DPM -HIS/-TRP, 0.5 mM CsCl, 24 hours growth, TROPIX kit, ASSAY 1
[2] = 30 μM, wild-type cells, DPM -HIS/-TRP, 0.5 mM CsCl, 24 hours growth, TROPIX kit, ASSAY 1, mean of 4
[3] = 30 μM, wild-type cells, DPM -HIS/-TRP, 0.5 mM CsCl, 24 hours growth, TROPIX kit, ASSAY 2
[4] = 30 μM, wild-type cells, DPM -HIS/-TRP, 0.5 mM CsCl, 24 hours growth, TROPIX kit, ASSAY 2, mean of 4

| SMILES | Exp. 1 (LacZ luminescence), ASSAY 1 [1] | Exp. 2 (LacZ luminescence), ASSAY 1 [1] | Exp. 3 (LacZ luminescence), ASSAY 1 [1] | Exp. 4 (LacZ luminescence), ASSAY 1 [1] | Mean growth (LacZ luminescence), ASSAY 1 [2] | Exp. 1 (LacZ luminescence), ASSAY 2 [3] | Exp. 2 (LacZ luminescence), ASSAY 2 [3] | Exp. 3 (LacZ luminescence), ASSAY 2 [3] | Exp. 4 (LacZ luminescence), ASSAY 2 [3] | Mean growth (LacZ luminescence), ASSAY 2 [4] | also measured |
| --- | --- | --- | --- | --- | --- | --- | --- | --- | --- | --- | --- |
| CN(C)CCOC(c1ccccc1)c1ccccc1 [Diphenhydramine] | 2806 | 3161 | 4178 | 4884 | 3757.25 | 3468 | 2980 | 3062 | 3581 | 3267.75 |  |
| CCOC(=O)N1CCC(=C2c3ccc(Cl)cc3CCc3cccnc32)CC1 [Loratadine, ethyl 4-(8-chloro-5,6-dihydro-11H-benzo[5,6]cyclohepta[1,2-b]pyridin-11-ylidene)-1-piperidinecarboxytate] | 4905 | 5141 | 1857 | 3266 | 3792.25 | 3553 | 1965 | 3590 | 2478 | 2896.5 |  |
| O=C1NCCN1CCN1CCC(c2cn(-c3ccc(F)cc3)c3ccc(Cl)cc23)CC1 [Sertindole, 1-(2-[4-[5-chloro-1-(4-fluorophenyl)-1H-indol-3-yl]-1-piperidinyl]ethyl)-2-imidazolidinone] | 4165 | 2099 | 4588 | 3069 | 3480.25 | 3992 | 3076 | 3972 | 2782 | 3455.5 | specificity of inhibition of the human HERG1 channel (comparison with wild-type strain): specific inhibitors |
| CC(C)(C)c1ccc(C(O)CCCN2CCC(C(O)(c3ccccc3)c3ccccc3)CC2)cc1 (stereo not drawn) [Terfenadine, α-(4-tert-butylphenyl)-4-(α-hydroxy-αphenylbenzyl)-1-piperidinebutanol] |  |  |  |  |  |  |  |  |  |  | Exp. 1 (LacZ luminescence), ASSAY 1: 4497; Exp. 1 (LacZ luminescence), ASSAY 2: 3439; Exp. 2 (LacZ luminescence), ASSAY 1: 4481; Exp. 2 (LacZ luminescence), ASSAY 2: 3795; Exp. 3 (LacZ luminescence), ASSAY 1: 5058; Exp. 3 (LacZ luminescence), ASSAY 2: 3698; Exp. 4 (LacZ luminescence), ASSAY 1: 5381; Exp. 4 (LacZ luminescence), ASSAY 2: 3388; Mean growth (LacZ luminescence), ASSAY 1: 4854.25; Mean growth (LacZ luminescence), ASSAY 2: 3580 |
